Results reported in paper PMC3631187, “Structural and Functional Insights into Saccharomyces cerevisiae Riboflavin Biosynthesis Reductase RIB7” (PLoS ONE, 2013).

T1: ScRIB7 (Saccharomyces cerevisiae, UniProt P33312, T79A)
T1 construct: gene RIB7; recombinant in E. coli BL21(DE3), pGEX6p-1, GST tag removed with PreScission protease; homodimer, ~43 kDa by sedimentation
T1 sequence (P33312 1-244 T79A): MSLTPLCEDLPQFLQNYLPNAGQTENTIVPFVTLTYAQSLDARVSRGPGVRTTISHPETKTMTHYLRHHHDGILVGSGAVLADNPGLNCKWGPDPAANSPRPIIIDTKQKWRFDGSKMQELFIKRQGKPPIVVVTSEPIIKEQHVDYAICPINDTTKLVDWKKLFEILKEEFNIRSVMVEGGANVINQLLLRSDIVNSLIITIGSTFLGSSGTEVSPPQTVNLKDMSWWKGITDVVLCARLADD

T2: ScRIB7 (Saccharomyces cerevisiae, UniProt P33312)
T2 construct: gene RIB7; recombinant in E. coli BL21(DE3), pGEX6p-1, GST tag removed with PreScission protease; homodimer, ~43 kDa by sedimentation
T2 sequence (P33312 1-244): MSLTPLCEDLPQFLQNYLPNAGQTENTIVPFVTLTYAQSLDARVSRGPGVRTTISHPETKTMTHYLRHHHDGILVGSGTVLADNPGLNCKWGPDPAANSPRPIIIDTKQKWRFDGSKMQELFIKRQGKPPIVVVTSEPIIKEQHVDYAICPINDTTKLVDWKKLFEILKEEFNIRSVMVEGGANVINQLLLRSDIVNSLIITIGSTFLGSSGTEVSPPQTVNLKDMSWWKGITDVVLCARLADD

T3: ScRIB7 (Saccharomyces cerevisiae, UniProt P33312, D83A)
T3 construct: gene RIB7; recombinant in E. coli BL21(DE3), pGEX6p-1, GST tag removed with PreScission protease; homodimer, ~43 kDa by sedimentation
T3 sequence (P33312 1-244 D83A): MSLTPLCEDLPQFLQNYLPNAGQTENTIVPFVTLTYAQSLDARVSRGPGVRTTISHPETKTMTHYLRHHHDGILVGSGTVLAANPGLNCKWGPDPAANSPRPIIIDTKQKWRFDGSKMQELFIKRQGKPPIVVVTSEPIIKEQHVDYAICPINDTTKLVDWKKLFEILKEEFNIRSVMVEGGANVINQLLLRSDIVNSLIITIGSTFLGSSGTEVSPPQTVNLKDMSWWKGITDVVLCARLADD


Assays:
ScRIB7 [1] = target: T1, ScRIB7; assay: isothermal titration calorimetry; assay type: binding; conditions: 80 µM protein titrated with 800 µM NADPH in PBS
ScRIB7 [2] = target: T2, ScRIB7; assay: isothermal titration calorimetry; assay type: binding; conditions: 80 µM protein titrated with 800 µM NADPH in PBS; crystal structure of the complex (2.35 Å) also solved
ScRIB7 [3] = target: T3, ScRIB7; assay: isothermal titration calorimetry; assay type: binding; conditions: 80 µM protein titrated with 800 µM NADPH in PBS
[4] = target: the molecule itself; assay: SEC; gel filtration, data not shown; conditions of this run not told

Row | Molecule | no interaction heat detected (ScRIB7 [1]) | binding constant (ScRIB7 [2]) | binding constant (ScRIB7 [3]) | stoichiometry N [4]
1 | NC(=O)C1=CN([C@@H]2O[C@H](COP(=O)(O)OP(=O)(O)OC[C@H]3O[C@@H](n4cnc5c(N)ncnc54)[C@H](OP(=O)(O)O)[C@@H]3O)[C@@H](O)[C@H]2O)C=CC1 [NADPH] | no interaction heat was detected for the T79A mutant | Interactions between enzymes and NADPH were detected by isothermal titration calorimetry using nano-ITC2g | The binding constant of the D83A mutant with NADPH was similar to that of the wild type | –
2 | Saccharomyces cerevisiae RIB7 (enzyme, RIB7, riboflavin biosynthesis reductase of Saccharomyces cerevisiae; RIB7 gene amplified from genomic DNA and cloned BamHI/XhoI into pGEX6p-1; Wild type; A seleno-methionine derivative was used only for phasing; Residues left by the PreScission site after cleavage are not described; also called ScRIB7; riboflavin biosynthesis reductase RIB7; source: E. coli BL21 (DE3), purified …) MSLTPLCEDLPQFLQNYLPNAGQTENTIVPFVTLTYAQSLDARVSRGPGVRTTISHPETKTMTHYLRHHHDGILVGSGTVLADNPGLNCKWGPDPAANSPRPIIIDTKQKWRFDGSKMQELFIKRQGKPPIVVVTSEPIIKEQHVDYAICPINDTTKLVDWKKLFEILKEEFNIRSVMVEGGANVINQLLLRSDIVNSLIITIGSTFLGSSGTEVSPPQTVNLKDMSWWKGITDVVLCARLADD | – | – | – | 2
